Reference: ChEMBL document CHEMBL1131980, “New class of biphenylene dibenzazocinones as potent ligands for the human EP1 prostanoid receptor” (Bioorg Med Chem Lett, 1999)

What was measured:
[1] = biological target: Prostaglandin E2 receptor EP2 subtype (Homo sapiens, UniProt P43116); test: Affinity at human EP2 receptor.
[2] = biological target: T1, Prostaglandin E2 receptor EP1 subtype (Homo sapiens, UniProt P34995); test: Affinity at human EP1 receptor.
T1 sequence (P34995 whole entry): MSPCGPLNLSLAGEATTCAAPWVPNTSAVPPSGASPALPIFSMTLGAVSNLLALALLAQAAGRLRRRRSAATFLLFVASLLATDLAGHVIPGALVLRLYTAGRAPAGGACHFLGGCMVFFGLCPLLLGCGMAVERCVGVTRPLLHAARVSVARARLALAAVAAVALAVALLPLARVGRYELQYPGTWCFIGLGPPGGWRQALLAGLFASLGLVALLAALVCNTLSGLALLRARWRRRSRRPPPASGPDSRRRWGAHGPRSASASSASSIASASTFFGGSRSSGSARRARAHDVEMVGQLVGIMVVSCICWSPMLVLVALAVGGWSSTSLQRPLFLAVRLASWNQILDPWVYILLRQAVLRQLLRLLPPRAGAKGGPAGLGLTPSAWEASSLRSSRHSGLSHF

[3] = biological target: Prostaglandin E2 receptor EP4 subtype (Homo sapiens, UniProt P35408); test: Affinity at human EP4 receptor.
[4] = biological target: T2, Prostaglandin E2 receptor EP3 subtype (Homo sapiens, UniProt P43115); test: Affinity at human EP3 receptor.
T2 sequence (P43115 whole entry): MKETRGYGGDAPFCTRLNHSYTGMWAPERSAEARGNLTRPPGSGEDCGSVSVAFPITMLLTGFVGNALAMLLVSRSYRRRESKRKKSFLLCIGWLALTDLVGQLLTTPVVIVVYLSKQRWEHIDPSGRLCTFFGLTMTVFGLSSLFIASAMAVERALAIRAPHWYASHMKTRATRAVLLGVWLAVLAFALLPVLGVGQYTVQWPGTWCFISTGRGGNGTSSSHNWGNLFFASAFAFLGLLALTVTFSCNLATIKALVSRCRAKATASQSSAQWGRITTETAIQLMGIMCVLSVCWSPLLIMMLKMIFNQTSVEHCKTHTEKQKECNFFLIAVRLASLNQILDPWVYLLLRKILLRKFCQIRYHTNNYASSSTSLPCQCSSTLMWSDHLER

[5] = Compound was evaluated for ratio of Ki's of EP3 and EP1
Prostacyclin receptor = Prostacyclin receptor (Homo sapiens, UniProt P43119); test: Compound was evaluated for its secondary binding affinity to human IP receptors by using Aequorin luminescence-based functional calcium assay
[6] = biological target: Prostaglandin F2-alpha receptor (Homo sapiens, UniProt P43088); test: Compound was evaluated for its secondary binding affinity to human FP receptors by using Aequorin luminescence-based functional calcium assay
Thromboxane A2 receptor = biological target: T3, Thromboxane A2 receptor (Homo sapiens, UniProt P21731); test: Compound was evaluated for its secondary binding affinity to human TP receptors by using Aequorin luminescence-based functional calcium assay
T3 sequence (P21731 whole entry): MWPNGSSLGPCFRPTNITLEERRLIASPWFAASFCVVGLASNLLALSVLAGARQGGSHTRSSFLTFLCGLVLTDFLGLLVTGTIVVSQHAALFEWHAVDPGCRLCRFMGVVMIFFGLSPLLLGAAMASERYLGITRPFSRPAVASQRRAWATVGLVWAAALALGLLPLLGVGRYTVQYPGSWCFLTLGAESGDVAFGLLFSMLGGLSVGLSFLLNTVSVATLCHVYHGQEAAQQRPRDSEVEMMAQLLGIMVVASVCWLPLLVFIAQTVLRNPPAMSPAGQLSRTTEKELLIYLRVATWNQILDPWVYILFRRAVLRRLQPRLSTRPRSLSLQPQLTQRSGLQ

[7] = biological target: T4, Prostaglandin D2 receptor (Homo sapiens, UniProt Q13258); test: Compound was evaluated for its secondary binding affinity to human DP receptors by using Aequorin luminescence-based functional calcium assay
T4 sequence (Q13258 whole entry): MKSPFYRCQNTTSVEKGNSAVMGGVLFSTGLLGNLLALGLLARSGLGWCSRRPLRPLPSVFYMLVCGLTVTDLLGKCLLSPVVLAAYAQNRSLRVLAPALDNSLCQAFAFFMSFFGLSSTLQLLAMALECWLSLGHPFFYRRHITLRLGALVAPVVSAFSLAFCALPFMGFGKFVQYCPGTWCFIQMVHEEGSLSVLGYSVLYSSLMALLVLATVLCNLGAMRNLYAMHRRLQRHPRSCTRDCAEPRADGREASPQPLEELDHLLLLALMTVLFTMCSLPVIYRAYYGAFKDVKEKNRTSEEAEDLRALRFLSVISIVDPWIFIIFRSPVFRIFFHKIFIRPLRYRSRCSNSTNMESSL

Sequence of Prostaglandin F2-alpha receptor (P43088 whole entry): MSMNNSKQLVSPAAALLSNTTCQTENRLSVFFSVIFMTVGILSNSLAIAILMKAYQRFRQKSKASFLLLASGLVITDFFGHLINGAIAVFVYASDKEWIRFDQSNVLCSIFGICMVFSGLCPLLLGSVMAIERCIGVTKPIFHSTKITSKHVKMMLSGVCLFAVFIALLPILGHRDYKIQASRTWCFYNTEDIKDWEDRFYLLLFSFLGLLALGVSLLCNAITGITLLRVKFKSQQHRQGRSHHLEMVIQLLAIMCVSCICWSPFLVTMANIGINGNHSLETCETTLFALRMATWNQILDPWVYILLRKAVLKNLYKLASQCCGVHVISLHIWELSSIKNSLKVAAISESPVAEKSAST
Sequence of Prostacyclin receptor (P43119 whole entry): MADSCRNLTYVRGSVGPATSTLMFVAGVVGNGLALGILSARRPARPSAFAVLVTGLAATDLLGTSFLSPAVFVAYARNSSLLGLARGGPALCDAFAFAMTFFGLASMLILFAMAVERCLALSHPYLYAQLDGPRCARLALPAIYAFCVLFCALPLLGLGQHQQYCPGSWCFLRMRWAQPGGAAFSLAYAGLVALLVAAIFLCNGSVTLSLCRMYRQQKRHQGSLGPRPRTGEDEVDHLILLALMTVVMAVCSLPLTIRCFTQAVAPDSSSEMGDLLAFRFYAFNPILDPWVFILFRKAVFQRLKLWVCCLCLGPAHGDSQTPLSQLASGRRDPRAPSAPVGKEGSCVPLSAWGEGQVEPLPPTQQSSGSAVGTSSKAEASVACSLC
Sequence of Prostaglandin E2 receptor EP2 subtype (P43116 whole entry): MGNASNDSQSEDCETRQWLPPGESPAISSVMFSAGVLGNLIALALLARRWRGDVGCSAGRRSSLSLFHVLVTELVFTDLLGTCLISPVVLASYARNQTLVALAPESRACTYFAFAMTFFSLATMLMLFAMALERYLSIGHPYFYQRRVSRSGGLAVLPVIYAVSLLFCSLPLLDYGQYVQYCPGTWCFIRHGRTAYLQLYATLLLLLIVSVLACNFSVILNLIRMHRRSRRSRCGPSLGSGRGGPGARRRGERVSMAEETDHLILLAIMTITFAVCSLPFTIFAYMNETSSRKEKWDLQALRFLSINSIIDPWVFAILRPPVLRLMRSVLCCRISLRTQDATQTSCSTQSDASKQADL
Sequence of Prostaglandin E2 receptor EP4 subtype (P35408 whole entry): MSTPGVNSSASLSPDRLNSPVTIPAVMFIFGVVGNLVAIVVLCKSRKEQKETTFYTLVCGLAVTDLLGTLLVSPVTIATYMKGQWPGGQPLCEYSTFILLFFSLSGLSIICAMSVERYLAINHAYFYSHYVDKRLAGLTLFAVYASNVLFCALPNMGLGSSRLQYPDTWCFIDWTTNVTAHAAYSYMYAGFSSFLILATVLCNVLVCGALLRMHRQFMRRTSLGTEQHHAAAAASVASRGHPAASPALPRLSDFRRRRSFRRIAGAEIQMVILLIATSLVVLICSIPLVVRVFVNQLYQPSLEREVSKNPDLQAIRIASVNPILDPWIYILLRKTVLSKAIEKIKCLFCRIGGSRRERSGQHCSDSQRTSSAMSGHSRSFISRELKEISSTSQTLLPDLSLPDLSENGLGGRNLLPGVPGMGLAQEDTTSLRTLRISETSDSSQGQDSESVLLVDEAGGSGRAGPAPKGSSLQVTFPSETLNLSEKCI

Ki [1] [µM] | Ki [2] [µM] | Ki [3] [µM] | Ki [4] [µM] | Ratio [5] | Ki (Prostacyclin receptor) [µM] | Ki [6] [µM] | Ki (Thromboxane A2 receptor) [µM] | Ki [7] [µM] | SMILES
> 100 | 0.22 | > 100 | 6 |  |  |  |  |  | CCCCNC(=O)NS(=O)(=O)c1ccccc1-c1ccc(CN2C(=O)c3ccccc3CCc3ccccc32)cc1
 | 2.8 |  |  |  |  |  |  |  | O=C(NCCc1cccs1)NS(=O)(=O)c1ccccc1-c1ccc(CN2Cc3ccccc3CCc3ccccc32)cc1
16 | 21 | 19 | 4.6 |  |  |  |  |  | O=C(Nc1ccccc1)NS(=O)(=O)c1ccccc1-c1ccc(CN2C(=O)c3ccccc3CCc3ccccc32)cc1
 | 1.2 |  |  |  |  |  |  |  | O=C(NCCc1cccs1)NS(=O)(=O)c1ccccc1-c1ccc(Cn2c(=O)c3ccccc3c3ccccc32)cc1
> 100 | 0.77 | 4.7 | 1.2 | 1.7 |  |  |  |  | CC(C)(C)NC(=O)NS(=O)(=O)c1ccccc1-c1ccc(CN2C(=O)c3ccccc3CCc3ccccc32)cc1
23 | 0.017 | 1.1 | 5 |  | 52 | 6.2 | 2.1 | 2.87 | CN(CCc1ccccc1)C(=O)NS(=O)(=O)c1ccccc1-c1ccc(CN2C(=O)c3ccccc3CCc3ccccc32)cc1
> 100 | 0.4 | > 100 | > 100 |  |  |  |  |  | O=C(NCCCc1ccccc1)NS(=O)(=O)c1ccccc1-c1ccc(CN2C(=O)c3ccccc3CCc3ccccc32)cc1
> 100 | 0.12 | > 100 | 51.2 |  |  |  |  |  | O=C(NCCc1ccccc1)NS(=O)(=O)c1ccccc1-c1ccc(CN2C(=O)c3ccccc3CCc3ccccc32)cc1
> 100 | 0.047 | 13 | 3.6 |  |  |  |  |  | O=C(CCc1ccccc1)NS(=O)(=O)c1ccccc1-c1ccc(CN2C(=O)c3ccccc3CCc3ccccc32)cc1
> 100 | 0.2 | > 100 | 13 |  |  |  |  |  | O=C(NCc1ccccc1)NS(=O)(=O)c1ccccc1-c1ccc(CN2C(=O)c3ccccc3CCc3ccccc32)cc1
> 100 | 51 | > 100 | > 100 |  |  |  |  |  | O=C1c2ccccc2CCc2ccccc2N1Cc1ccc(-c2ccccc2S(=O)(=O)N(Cc2ccccc2)C(=O)NCCc2ccccc2)cc1
23 | 0.01 | 5 | 4 |  | 21 | 5 | 3 | 2.4 | CC(C)(C(=O)NS(=O)(=O)c1ccccc1-c1ccc(CN2C(=O)c3ccccc3CCc3ccccc32)cc1)c1ccccc1
11 | 0.012 | 4 | 1.3 |  | 13 | 3.8 | 1.5 | 2 | CO[C@](C(=O)NS(=O)(=O)c1ccccc1-c1ccc(CN2C(=O)c3ccccc3CCc3ccccc32)cc1)(c1ccccc1)C(F)(F)F
11 | 0.15 | 6 | 2.4 |  |  |  |  |  | O=C(NS(=O)(=O)c1ccccc1-c1ccc(CN2C(=O)c3ccccc3CCc3ccccc32)cc1)OCc1ccccc1
> 100 | 0.016 | 20 | 5 |  | 28.3 | 5.3 | 2.8 | 2.8 | CC(C(=O)NS(=O)(=O)c1ccccc1-c1ccc(CN2C(=O)c3ccccc3CCc3ccccc32)cc1)c1ccccc1 (centres undefined)
> 100 | 0.1 | > 100 | 2.2 |  |  |  |  |  | O=C(NCCc1cccs1)NS(=O)(=O)c1ccccc1-c1ccc(CN2C(=O)c3ccccc3CCc3ccccc32)cc1
> 100 | 0.36 | > 100 | > 100 |  |  |  |  |  | CN(C(=O)NCCc1ccccc1)S(=O)(=O)c1ccccc1-c1ccc(CN2C(=O)c3ccccc3CCc3ccccc32)cc1
22 | 0.14 | 7 | 4.7 |  |  |  |  |  | O=C(COc1ccccc1)NS(=O)(=O)c1ccccc1-c1ccc(CN2C(=O)c3ccccc3CCc3ccccc32)cc1
21 | 0.14 | 6.9 | 4.7 |  |  |  |  |  | C[C@H](NC(=O)NS(=O)(=O)c1ccccc1-c1ccc(CN2C(=O)c3ccccc3CCc3ccccc32)cc1)c1ccccc1
13 | 0.05 | 3 | 1.6 |  |  |  |  |  | CO[C@@](C(=O)NS(=O)(=O)c1ccccc1-c1ccc(CN2C(=O)c3ccccc3CCc3ccccc32)cc1)(c1ccccc1)C(F)(F)F
14 | 0.057 | > 100 | 2.8 |  |  |  |  |  | O=C(Cc1ccccc1)NS(=O)(=O)c1ccccc1-c1ccc(CN2C(=O)c3ccccc3CCc3ccccc32)cc1
> 100 | 0.018 | 2.4 | 16 |  | 21 | 1.3 | 1.1 | 4 | CC(C)(Cc1ccccc1)C(=O)NS(=O)(=O)c1ccccc1-c1ccc(CN2C(=O)c3ccccc3CCc3ccccc32)cc1
 | 10.8 |  |  |  |  |  |  |  | O=C(NCCc1cccs1)NS(=O)(=O)c1ccccc1-c1ccc(CN2C(=O)c3ccccc3Oc3ccccc32)cc1
